Values after ≈ are worked out from the molar mass of the structure shown.
Conditions: for aqueous solubility: pH 6.8

| SMILES | MDR1-MDCK efflux ratio | intrinsic clearance, human liver microsomes | intrinsic clearance, rat liver microsomes | aqueous solubility | fraction unbound, human plasma | fraction unbound, rat plasma |
| --- | --- | --- | --- | --- | --- | --- |
| CCOC(=O)c1cccnc1SCc1cccnc1 | 0.646 | 293 mL/min/kg | 1260 mL/min/kg | – | – | – |
| CNC(=O)[C@H]1O[C@@H](n2cnc3c(NCc4cccc(I)c4)ncnc32)[C@H](O)[C@@H]1O | – | 195 mL/min/kg | 3690 mL/min/kg | – | – | – |
| COc1ccccc1CNc1n[nH]c2nc([C@H]3CCCN(CC(=O)N4CCCC4)C3)ccc12 | 43.9 | 22.9 mL/min/kg | 422 mL/min/kg | 54.9 µg/mL (≈ 122 µM) | – | – |
| CN1CCC(CNC(=O)c2ncoc2-c2ccc(F)cc2)CC1 | 1.76 | ≤ 4.74 mL/min/kg | 50.1 mL/min/kg | – | – | – |
| Fc1ccc2oc(Cn3nnc(-c4ccsc4)n3)nc2c1 | – | – | – | 30.2 µg/mL (≈ 100 µM) | – | – |
| Cc1nn(C)cc1CNc1nc(-c2cnccn2)nc2sc3c(c12)CCCC3 | 1.92 | 273 mL/min/kg | 2410 mL/min/kg | 50.6 µg/mL (≈ 129 µM) | – | – |
| N#CCN1CCCN(Cc2ccc(C#N)cc2)CC1 | – | 65.5 mL/min/kg | 267 mL/min/kg | 37.8 µg/mL (≈ 149 µM) | – | – |
| CN(C)CCn1ccc2cc(NC(=O)c3ccc(=O)[nH]n3)ccc21 | – | – | – | 53.5 µg/mL (≈ 164 µM) | – | – |
| COc1ccc(C(=O)N(C)Cc2nccn2C)c(F)c1 | 2.22 | ≤ 4.74 mL/min/kg | 53.8 mL/min/kg | 52.5 µg/mL (≈ 189 µM) | – | – |
| Cc1nn(-c2ccc(F)cc2)c2ncc(C(=O)Nc3nc(C4CC4)cs3)cc12 | – | 5.68 mL/min/kg | 32.4 mL/min/kg | 5.35 µg/mL (≈ 13.6 µM) | – | – |
| Cc1cnc(N2CCSCC2)nc1N1CCSCC1 | 0.691 | 193 mL/min/kg | 2640 mL/min/kg | – | – | – |
| CCCC(=O)Nc1cnc(N2CCN(C)CC2)nc1 | 1.39 | ≤ 4.74 mL/min/kg | 34.4 mL/min/kg | 35.3 µg/mL (≈ 134 µM) | – | – |
| C[C@@H](CN1CCC(n2c(=O)[nH]c3cc(Br)ccc32)CC1)NC(=O)[C@@H]1C[C@H]1c1ccccc1 | – | – | 574 mL/min/kg | – | – | – |
| Cc1cc(Cl)c(OCCCN2CCNCC2)c(Br)c1 | – | ≤ 4.74 mL/min/kg | 461 mL/min/kg | 36.9 µg/mL (≈ 106 µM) | – | – |
| Cc1nccc(NC(=O)c2ccncc2Cl)c1Cl | 0.729 | 21.2 mL/min/kg | 78.1 mL/min/kg | – | – | – |
| CCC(CC)N1CC[C@H](O)[C@@](O)(COc2cc(C)ccc2Cl)C1 | 1.18 | 371 mL/min/kg | 4650 mL/min/kg | – | – | – |
| CCN(CCOC)C(=O)Nc1ccc2occc(=O)c2c1 | 1.32 | 9.83 mL/min/kg | 32.7 mL/min/kg | – | – | – |
| Cn1ccc2c(NC(=O)N3CCCN(C(=O)Oc4ccccc4)CC3)cccc21 | – | 41.8 mL/min/kg | 777 mL/min/kg | 71.9 µg/mL (≈ 183 µM) | – | – |
| O=C(CNC(=O)c1ccc(Cl)cc1)Nc1nc(-c2ccc3ccccc3c2)cs1 | – | – | – | 0.4 µg/mL (≈ 0.948 µM) | – | – |
| COc1ccc2c(c1)C=C(CN1CCC(c3cc(-c4ccc(N)nc4)cc(C)n3)CC1)CO2 | 0.999 | 43.4 mL/min/kg | 169 mL/min/kg | 22.9 µg/mL (≈ 51.8 µM) | – | – |

| SMILES | MDR1-MDCK efflux ratio | intrinsic clearance, human liver microsomes | intrinsic clearance, rat liver microsomes | aqueous solubility | fraction unbound, human plasma | fraction unbound, rat plasma |
| --- | --- | --- | --- | --- | --- | --- |
| O=C(O)c1ccc(=O)n(CCc2c[nH]c3ccccc23)c1 | 2.39 | ≤ 4.74 mL/min/kg | ≤ 10.7 mL/min/kg | 42.4 µg/mL (≈ 150 µM) | – | – |
| CN1CC[C@@H](c2c(O)cc(O)c3c(=O)cc(-c4ccccc4Cl)oc23)[C@@H]1CO | 122 | 27 mL/min/kg | 142 mL/min/kg | 64.9 µg/mL (≈ 162 µM) | – | – |
| Cc1cc(C(=O)NCCc2ccccn2)c(C)s1 | 0.639 | 63.1 mL/min/kg | 232 mL/min/kg | 41.1 µg/mL (≈ 158 µM) | – | – |
| c1csc(-c2csc3nc(CN4CCOCC4)nc(N4CCc5[nH]ncc5C4)c23)c1 | 83.5 | 559 mL/min/kg | 1320 mL/min/kg | 49 µg/mL (≈ 112 µM) | – | – |
| CN1C(=O)CCc2cc(NC(=O)C(C)(C)c3ccccc3F)ccc21 | – | 29.3 mL/min/kg | 362 mL/min/kg | 80.8 µg/mL (≈ 237 µM) | – | – |
| Cc1cc(C)n(-c2cccc(NC(=O)c3ccc(F)c(F)c3)c2)n1 | 0.649 | 31.3 mL/min/kg | 353 mL/min/kg | 1.61 µg/mL (≈ 4.92 µM) | – | – |
| CC(c1ccccc1)N1CC(C(=O)N2CCC(n3c(=O)[nH]c4ccccc43)CC2)CC1=O (configuration not stated) | – | 32.1 mL/min/kg | 454 mL/min/kg | 71.7 µg/mL (≈ 166 µM) | – | – |
| COCc1ccccc1CNc1ccc2nnc(-c3ccccc3)n2n1 | 9.33 | 101 mL/min/kg | 417 mL/min/kg | 2.8 µg/mL (≈ 8.11 µM) | – | – |
| COc1cccc(CN2CCN(C(=O)Cc3ccc(C)cc3)[C@@H](C)C2)c1 | 0.739 | 230 mL/min/kg | 988 mL/min/kg | 44 µg/mL (≈ 125 µM) | – | – |
| Cc1cccc(NC2CCN(Cc3ccncc3)CC2)n1 | 0.496 | 18.6 mL/min/kg | 238 mL/min/kg | 37.6 µg/mL (≈ 133 µM) | – | – |
| Cc1cnc(C(=O)N[C@H]2CCOC[C@@H]2O)cc1Cc1ccc(-c2cscn2)cc1 | 6.89 | ≤ 4.74 mL/min/kg | 34.8 mL/min/kg | 61.9 µg/mL (≈ 151 µM) | – | – |
| O=C(O)Cc1ccc(Oc2ccncc2)cc1 | 1.2 | ≤ 4.74 mL/min/kg | ≤ 10.7 mL/min/kg | – | – | – |
| Cc1[nH]nc(CCC(=O)NCCCOC2CCCCC2)c1C | 18.2 | 63.5 mL/min/kg | 4360 mL/min/kg | – | – | – |
| O=C(Nc1nc2cccc(-c3ccc(CN4CCS(=O)(=O)CC4)cc3)n2n1)C1CC1 | 136 | ≤ 4.74 mL/min/kg | 19.4 mL/min/kg | 47.1 µg/mL (≈ 111 µM) | 0.48 | 0.4 |
| Cc1ccccc1NC(=O)CN1C(=O)CCC1=O | – | ≤ 4.74 mL/min/kg | ≤ 10.7 mL/min/kg | 36.3 µg/mL (≈ 147 µM) | – | – |
| CC(C)CCN1CCn2c1nc1c2c(=O)n(C)c(=O)n1C | – | 26.3 mL/min/kg | 99.7 mL/min/kg | 46.6 µg/mL (≈ 160 µM) | – | – |
| Brc1cc2c(cc1Cn1cncn1)OCCCO2 | 0.566 | 7.7 mL/min/kg | 228 mL/min/kg | 34.4 µg/mL (≈ 111 µM) | – | – |
| Cc1ccc(C2(O)CCN(Cc3cn(C)c4ccc(F)cc34)CC2)cc1 | 0.869 | 65.2 mL/min/kg | 1790 mL/min/kg | 49.7 µg/mL (≈ 141 µM) | – | – |
| CS(=O)(=O)N1CCc2cc(C(=O)NCCOc3ccc4ccccc4c3)ccc21 | 1.68 | – | – | 0.44 µg/mL (≈ 1.07 µM) | – | – |
| Cc1cc2ccccc2n1CC(=O)N(C)Cc1cnn(C)c1 | 2.14 | – | – | 47.5 µg/mL (≈ 160 µM) | – | – |

| SMILES | MDR1-MDCK efflux ratio | intrinsic clearance, human liver microsomes | intrinsic clearance, rat liver microsomes | aqueous solubility | fraction unbound, human plasma | fraction unbound, rat plasma |
| --- | --- | --- | --- | --- | --- | --- |
| Cc1noc(NCc2cccc(-c3cccnc3)c2)n1 | 0.752 | 20.5 mL/min/kg | 157 mL/min/kg | 34.6 µg/mL (≈ 130 µM) | – | – |
| Cc1nc(C)c(C(=O)Nc2ccc3ncccc3c2)o1 | – | 13.4 mL/min/kg | 34.8 mL/min/kg | – | – | – |
| COc1cc(Nc2cc(-c3cccc(C#N)c3)ccn2)ccc1N1CCN(C)CC1 | 3.85 | 5.88 mL/min/kg | 198 mL/min/kg | 45.8 µg/mL (≈ 115 µM) | – | – |
| CCN1C(=O)CC[C@H](C(=O)N2CCc3cc(F)cc(C)c3C2)[C@H]1c1ccncc1 | 51.4 | 185 mL/min/kg | 473 mL/min/kg | 70.2 µg/mL (≈ 178 µM) | – | – |
| Clc1ccc2c(c1)CCc1cccnc1C2=C1CCNCC1 | 47.8 | ≤ 4.74 mL/min/kg | 108 mL/min/kg | – | – | – |
| Cc1ccc(NC(=O)c2cc(-c3ccccn3)nc3ccccc23)nc1 | – | – | – | 0.18 µg/mL (≈ 0.529 µM) | – | – |
| COc1cccc(CC(=O)N2CCOC(c3cc(Nc4nnc(C)s4)cc(C)n3)C2)c1 (configuration not stated) | 10.7 | 68.6 mL/min/kg | 308 mL/min/kg | – | – | – |
| N#Cc1cc(CN2CCC(Nc3ncnc4sc(Cl)cc34)CC2)ccc1F | 9.4 | 123 mL/min/kg | 1680 mL/min/kg | – | – | – |
| Cn1cncc1-c1ncccc1C(=O)N1CCCC1 | 17.3 | ≤ 4.74 mL/min/kg | ≤ 10.7 mL/min/kg | 54.2 µg/mL (≈ 211 µM) | – | – |
| Cc1nc(-c2ccncc2)cc(N2CCC(CO)CC2)n1 | – | ≤ 4.74 mL/min/kg | 36.9 mL/min/kg | – | – | – |
| COc1cc2ncn(-c3cc(OCc4ccccc4S(C)(=O)=O)c(C#N)s3)c2cc1OC | 8.01 | – | – | 0.3 µg/mL (≈ 0.639 µM) | – | – |
| CCN1CCC(CCNc2ncc(C)c(N(C)C)n2)CC1 | 11.5 | ≤ 4.74 mL/min/kg | 323 mL/min/kg | – | – | – |
| CC(C)(C)c1cc(NS(=O)(=O)c2c(Cl)cccc2Cl)cc(C(C)(C)C)c1 | – | 89.6 mL/min/kg | 1030 mL/min/kg | – | – | – |
| Cc1cc(NC(=O)Cn2nc(C3CC3)ccc2=O)ccc1Cl | 0.894 | – | – | 0.86 µg/mL (≈ 2.71 µM) | – | – |
| Cc1nc(-c2ccccc2)nc(O)c1C | 0.634 | 19.3 mL/min/kg | 54.3 mL/min/kg | – | – | – |
| Cn1cc(Nc2nccc(N3CC4CCC(C3)N4C(=O)[C@@H]3CC3(F)F)n2)cn1 | 39.9 | 7.26 mL/min/kg | 32.5 mL/min/kg | – | 0.44 | 0.612 |
| Cc1oc(C)c(C(=O)N(C)Cc2ccccc2N2CCOCC2)c1C | 1.58 | 916 mL/min/kg | 5800 mL/min/kg | 61.8 µg/mL (≈ 180 µM) | – | – |
| O=C([C@@H]1CCCN1C(=O)NC(c1ccccc1)c1ccccc1)N1CCCCC1 | 26.9 | 205 mL/min/kg | 867 mL/min/kg | – | – | – |
